Data published in ChEMBL document CHEMBL5465560, “Selectivity Literature for EUbOPEN Chemogenomic Library” (2024).

Tests used:
Conditions in all cases: at 10 µM
[1] = target: T1, Phosphatidylinositol 3-kinase C2 domain-containing subunit gamma (Homo sapiens) (UniProt O75747)
T1 sequence (whole entry): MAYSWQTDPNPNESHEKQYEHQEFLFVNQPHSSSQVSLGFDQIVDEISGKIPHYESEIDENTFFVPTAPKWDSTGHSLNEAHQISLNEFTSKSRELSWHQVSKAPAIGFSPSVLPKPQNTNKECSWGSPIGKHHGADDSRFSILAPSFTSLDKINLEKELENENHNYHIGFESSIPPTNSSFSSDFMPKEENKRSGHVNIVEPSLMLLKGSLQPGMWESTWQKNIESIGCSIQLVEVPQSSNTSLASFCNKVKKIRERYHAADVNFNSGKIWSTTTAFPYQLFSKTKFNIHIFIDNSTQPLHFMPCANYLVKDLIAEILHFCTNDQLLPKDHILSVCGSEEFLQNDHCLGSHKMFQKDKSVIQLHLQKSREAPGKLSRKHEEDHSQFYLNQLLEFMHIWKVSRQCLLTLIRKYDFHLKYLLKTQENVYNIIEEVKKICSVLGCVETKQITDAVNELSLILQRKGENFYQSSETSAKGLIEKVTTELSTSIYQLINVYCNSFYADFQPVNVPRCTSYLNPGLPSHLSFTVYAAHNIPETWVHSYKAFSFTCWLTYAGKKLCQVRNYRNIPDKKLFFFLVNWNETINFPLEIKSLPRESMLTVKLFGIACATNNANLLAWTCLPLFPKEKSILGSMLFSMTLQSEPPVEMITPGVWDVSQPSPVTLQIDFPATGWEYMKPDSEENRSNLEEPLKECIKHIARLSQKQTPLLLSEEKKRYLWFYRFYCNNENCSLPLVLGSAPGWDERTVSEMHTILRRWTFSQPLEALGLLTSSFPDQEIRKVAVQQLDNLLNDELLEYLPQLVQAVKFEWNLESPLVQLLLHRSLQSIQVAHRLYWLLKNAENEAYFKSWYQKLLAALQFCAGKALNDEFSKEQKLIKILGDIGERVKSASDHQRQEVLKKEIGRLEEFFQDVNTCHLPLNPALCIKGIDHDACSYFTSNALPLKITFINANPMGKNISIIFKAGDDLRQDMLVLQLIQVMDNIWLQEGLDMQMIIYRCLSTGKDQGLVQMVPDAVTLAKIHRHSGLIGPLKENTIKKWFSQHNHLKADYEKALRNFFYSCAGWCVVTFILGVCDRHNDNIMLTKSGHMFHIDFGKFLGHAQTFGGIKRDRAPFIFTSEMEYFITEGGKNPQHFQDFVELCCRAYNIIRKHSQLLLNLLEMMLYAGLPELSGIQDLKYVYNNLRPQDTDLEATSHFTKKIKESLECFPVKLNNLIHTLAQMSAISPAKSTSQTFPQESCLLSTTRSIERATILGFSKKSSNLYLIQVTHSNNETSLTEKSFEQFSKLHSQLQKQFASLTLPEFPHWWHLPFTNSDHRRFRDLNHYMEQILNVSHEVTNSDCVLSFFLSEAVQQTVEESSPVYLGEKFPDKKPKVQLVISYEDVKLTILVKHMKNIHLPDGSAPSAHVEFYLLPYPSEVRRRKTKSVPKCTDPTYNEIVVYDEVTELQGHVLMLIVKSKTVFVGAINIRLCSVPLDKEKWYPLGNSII

[2] = target: Tyrosine-protein kinase SYK (Homo sapiens, UniProt P43405); experiment: Selectivity interaction (Kinase panel (Z-LYTE Assay)) EUB0001632a SYK
[3] = target: T2, Inhibitor of nuclear factor kappa-B kinase subunit epsilon (Homo sapiens) (UniProt Q14164); experiment: Selectivity interaction (Kinase panel (Z-LYTE Assay)) EUB0001632a IKBKE
T2 sequence (whole entry): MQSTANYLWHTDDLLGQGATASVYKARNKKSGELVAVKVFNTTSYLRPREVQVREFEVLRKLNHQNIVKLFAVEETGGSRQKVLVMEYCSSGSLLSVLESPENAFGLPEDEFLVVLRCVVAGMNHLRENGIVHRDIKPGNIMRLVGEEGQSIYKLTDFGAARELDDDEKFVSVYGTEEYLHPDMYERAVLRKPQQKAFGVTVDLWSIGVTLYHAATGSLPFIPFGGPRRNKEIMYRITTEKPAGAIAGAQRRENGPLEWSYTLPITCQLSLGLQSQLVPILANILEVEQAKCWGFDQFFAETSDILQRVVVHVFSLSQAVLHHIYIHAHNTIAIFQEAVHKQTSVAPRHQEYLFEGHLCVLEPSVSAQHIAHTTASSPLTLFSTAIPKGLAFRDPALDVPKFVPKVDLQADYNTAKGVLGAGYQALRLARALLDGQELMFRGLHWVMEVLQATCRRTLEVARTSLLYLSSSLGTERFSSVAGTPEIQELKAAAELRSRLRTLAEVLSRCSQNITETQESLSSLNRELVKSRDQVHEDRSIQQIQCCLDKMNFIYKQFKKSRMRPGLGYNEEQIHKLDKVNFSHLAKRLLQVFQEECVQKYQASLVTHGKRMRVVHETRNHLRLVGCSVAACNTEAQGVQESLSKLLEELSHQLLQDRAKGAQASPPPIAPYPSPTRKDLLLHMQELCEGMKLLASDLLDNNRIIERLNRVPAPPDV

[4] = Selectivity interaction (KinomeScan (DiscoverX)) EUB0000595a PKNB
[5] = target: T3, Rhodopsin kinase GRK7 (Homo sapiens) (UniProt Q8WTQ7); experiment: Selectivity interaction (KinomeScan (DiscoverX)) EUB0000229b GRK7
T3 sequence (whole entry): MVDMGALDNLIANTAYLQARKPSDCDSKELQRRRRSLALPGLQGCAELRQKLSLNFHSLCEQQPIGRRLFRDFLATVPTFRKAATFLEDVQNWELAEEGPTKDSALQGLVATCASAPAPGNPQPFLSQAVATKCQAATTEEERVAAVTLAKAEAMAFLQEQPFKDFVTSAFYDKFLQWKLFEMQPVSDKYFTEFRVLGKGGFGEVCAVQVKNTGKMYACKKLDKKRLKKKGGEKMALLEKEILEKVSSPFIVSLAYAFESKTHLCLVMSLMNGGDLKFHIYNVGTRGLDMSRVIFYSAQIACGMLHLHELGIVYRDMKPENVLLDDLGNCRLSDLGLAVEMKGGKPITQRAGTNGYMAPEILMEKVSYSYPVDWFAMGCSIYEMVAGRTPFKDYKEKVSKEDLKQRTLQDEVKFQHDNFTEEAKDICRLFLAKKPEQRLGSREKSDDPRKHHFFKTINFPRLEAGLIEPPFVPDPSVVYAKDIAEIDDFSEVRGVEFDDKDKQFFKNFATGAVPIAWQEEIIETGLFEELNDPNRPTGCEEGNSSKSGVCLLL

Cc1cc([C@@H](C)Nc2ccccc2C(=O)O)c2nc(N3CCOCC3)cc(=O)n2c1 [AZD-6482]
% of control [1]: 7%

Cn1cc(-n2cnc3c(NCc4nc5cc(Cl)c(Cl)cc5[nH]4)nc(N4CCOCC4)nc32)cn1
% of control [2]: 3.71% | % of control [3]: 2.49%

COCC(=O)NC/C=C/c1ccc2ncnc(Nc3ccc(Oc4ccc(C)nc4)c(C)c3)c2c1 [CP-724714]
% of control [4]: 23%

COc1cc(N(C)c2ccnc3ccc(C(F)(F)F)cc23)cc(OC)c1OC
% binding [5]: 69%
